Reference: patent publication EP0171342A1, “Substituted 2-(1-amino-akylidenyl)1,3-indane diones, process for their preparation and their therapeutical use” (priority 1984, dated 1986)
Converted amounts (≈) assume the structure as drawn. Read-outs that look alike come from different tables or passages of the source.

What was measured:
[1] = system: segments isolés d'iléon de cobaye; assay: Antihistamine activity: histamine-induced contraction of isolated guinea pig ileum; settings: 50 microg/ml, response induced by 0,5 microg/ml histamine
Source text: L'activité antihistaminique a été appréciée in vitro par l'inhibition de la réponse contractile de segments isolés d'iléon de cobaye induite par 0,5 microg/ml d'histamine.

souris [2] = assay: Acute toxicity (mortality, LD50) in mice; type: in vivo; settings: mouse
[3] = system: segments d'iléon de cobaye isolés; assay: Anticholinergic activity: acetylcholine-induced contractions of isolated guinea pig ileum; settings: Cavia porcellus; contractions induced by 0,1 microg/ml acetylcholine; read-out: concentration qui inhibe ces contractions de 80%
Source text: L'activité anticholinergique a été appréciée par la mesure des contractions induites par 0,1 microg/ml d'acétylcholine sur des segments d'iléon de cobaye isolés. Les COR3760, COR3789, COR3792, COR4003, COR4008, COR4010, COR4014 utilisés respectivement aux concentrations de 50, 25, 25, 50, 25, 10, 25 microg/ml inhibent ces contractions de 80%.

[4] = target: oreillettes droites de cobaye (Cavia porcellus, UniProt P47747); assay: Anti-H2 activity: histamine-induced chronotropic effect on unstimulated guinea pig right atria
oreillettes droites de cobaye, sequence (P47747 whole entry, the tested form may be a part): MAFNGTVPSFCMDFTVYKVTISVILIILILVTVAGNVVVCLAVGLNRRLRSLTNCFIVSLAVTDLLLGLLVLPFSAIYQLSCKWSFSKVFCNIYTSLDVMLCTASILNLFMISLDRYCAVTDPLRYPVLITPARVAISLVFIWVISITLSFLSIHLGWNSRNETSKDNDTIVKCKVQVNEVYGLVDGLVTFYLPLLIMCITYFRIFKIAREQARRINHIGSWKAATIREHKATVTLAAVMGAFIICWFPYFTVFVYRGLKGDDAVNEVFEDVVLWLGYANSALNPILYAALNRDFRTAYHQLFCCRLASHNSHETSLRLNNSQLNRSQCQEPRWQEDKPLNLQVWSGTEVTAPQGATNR

[5] = system: poumon de cobaye isolé perfusé; assay: Bronchodilator activity: isolated perfused guinea pig lung contracted by methacholine; settings: flow of Tyrode solution, lung contracted by 0,05 microg/ml methacholine; read-out: concentration qui augmente ce débit de 50%
Source text: L'activité bronchodilatatrice a été déterminée in vitro par la mesure du débit d'une solution de Tyrode à travers un poumon de cobaye isolé perfusé, contracté par l'addition au fluide de perfusion de 0,05 microg/ml de méthacholine. Les COR3760, COR3789, COR3792, COR4003, COR4008, COR4010 et COR4014 utilisés respectivement aux concentrations de 50, 50, 100, 10, 50, 50 et 10 microg/ml augmentent ce débit de 50%. L'aminophylline entraine cette même activité à la concentration de 100 microg/ml.

[6] = system: rat soumis à une surcharge hydrique; assay: Diuretic activity in rats given a water overload, oral; type: in vivo; settings: rat, water overload, oral; for response vs control in vivo at 20 mg/kg: read-out: facteur multipliant l'excrétion urinaire du sodium
How it was run: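 Oral dosing (5–80 mg/kg) to rats under water overload, or to rats and mice under saline overload. Urine volume and excreted sodium and potassium measured over 6 h, expressed as change versus control animals; Na/K ratio also derived.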

[7] = system: oedème induit par l'injection intraplantaire de carragénine chez le rat; assay: Anti-inflammatory activity: carrageenan paw oedema in rats; type: in vivo; settings: oral 1 h before carrageenan, measured 3 h after, dose 10b mg/kg [sic]
Procedure: L'activité antiinflammatoire a été déterminée chez le rat par la mesure de l'inhibition de l'oedème induit par l'injection intraplantaire de 0,1 ml d'une suspension à 1% de carragénine chez le rat. Les produits à tester sont administrés par voie orale lh avant l'injection de carragénine et la mesure est réalisée 3h après cette injection. Les COR3789, COR3792, COR4003, COR4008 et COR4010 administrés à 10b mg/kg entrainent respectivement 43, 42, 41, 38 et 39% d'inhibition. Administré à 200 mg/kg, le COR3773 entraine 53% d'inhibition. L'aspirine administrée dans les mêmes conditions à 150 mg/kg entraine 40% d'inhibition de l'oedème.

[8] = system: rat Wistar soumis à une surcharge saline; assay: Diuretic activity in selected Wistar rats given a saline overload (modified Wiebelhaus test); type: in vivo
How it was run: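 Selected Wistar rats under saline overload (modified Wiebelhaus test) received compound at 20 mg/kg. Urine volume and sodium excretion were measured over 6 h, expressed as % increase, with Na/K ratio also assessed.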

souris [9] = assay: Antidepressant activity: inhibition of reserpine-induced ptosis in mice; type: in vivo; settings: mouse, oral 200 mg/kg 90 min before reserpine 5 mg/kg i.p.; index 0 (maximum ptosis) to 6 (no ptosis)
Procedure: (§1) L'activité antidépressive a été déterminée dans le test de potentialisation de la toxicité de la yohimbine et dans le test de l'inhibition du ptosis induit par la réserpine.
(§2) On injecte par voie sous cutanée à des souris, lh avant l'administration par voie orale du produit à tester, une dose non léthale de yohimbine soit 15 mg/kg. Le COR3760 administré à la dose de 100 mg/kg entraine 80% de mortalité dans ces conditions. Des souris reçoivent par voie orale le produit à tester 90 mn avant l'injection par voie intrapéritonéale de 5 mg/kg de réserpine solubilisée. On cote le ptosis selon un index allant de 0 à 6, la cote 0 correspondant à un ptosis maximum et la cote 6 à l'absence de ptosis. Les COR3760 et COR4011 conduisent dans les conditions de l'expérience à un ptosis coté à 4 pour une dose de respectivement 200 et 50 mg/kg.

[10] = Acute toxicity (mortality, LD50) in mice; type: in vivo; settings: in vivo; mouse, oral, in solution in Tween 20%; read-out: DL50 (the source's name)
souris [11] = assay: Antidepressant activity: potentiation of yohimbine toxicity in mice; type: in vivo; settings: mouse, yohimbine 15 mg/kg s.c. (non-lethal dose), test product oral 100 mg/kg
Procedure: as §1, §2

[12] = system: rat soumis à une surcharge saline; assay: Diuretic activity in rats given a saline overload, oral; type: in vivo
Procedure: (§3) L'activité diurétique a été déterminée sur plusieurs modèles expérimentaux. Chez le rat soumis à une surcharge hydrique, administrés par voie orale à la dose de 20 mg/kg, le COR3760, le COR3789, le COR3792, le COR4002, le COR4003, le COR4009, le COR4010, le COR4012 et le COR4014 multiplient l'excrétion urinaire du sodium par respectivement un facteur 2,9 - 3,1 - 5,9 - 2,6 - 7,2 - 3,5 - 3,8 - 2,9 - 2,4. Administrés à la dose de 10 mg/kg, dans les mêmes conditions, les COR3760, COR3789, COR3792, COR4003 et COR4010 multiplient l'excrétion sodique par respectivement 2,3 - 2,9 - 2,8 - 2,4 et 2,5. La spironolactone multiplie quant à elle l'excrétion sodique d'un facteur 3,6 à la dose de 20 mg/kg. Administré à la dose de 5 mg/kg dans les mêmes conditions, le COR3792 multiplie l'excrétion sodique par 3,3. Administré par voie orale chez le rat ou la souris soumis à une surcharge saline, le COR3760 augmente l'excrétion urinaire volumétrique mesurée à la sixième heure de respectivement 49, 119 et 134% chez la souris et 28, 84 et 116% chez le rat après administration de 10, 20, et 40 mg/kg. Le COR3760 a été administré par voie orale au rat soumis à une surcharge hydrique et l'excrétion urinaire volumétrique, le sodium et le potassium excrétés ont été mesurés sur une période de 6 heures; ces paramètres ont varié de respectivement +17%, +102%, +165% à 10 mg/kg, +19%, +147%, +180% à 20 mg/kg et +36%, +415% et +239% à 40 mg/kg; le rapport Na/K passe de 0,56 chez les animaux témoins à 0,4 à 10 mg/kg, 0,49 à 20 mg/kg et 0, 8 à 40 mg/ kg. Au cours d'une seconde expérimentation, le COR3760 a entrainé des variations de +19%, +157%, +70% à 40 mg/kg, +19%, +319%, +90% à 60 mg/kg et +29%, +472% et +77% à 80 mg/kg; le rapport Na/K passe de 0,59 chez les animaux témoins à 0,88 à 40, 1,15 à 60 et 1,88 à 80 mg/kg.

[13] = system: souris soumis à une surcharge saline; assay: Diuretic activity in mice given a saline overload, oral; type: in vivo; settings: mouse
Procedure: as §3

[14] = first experiment, 10 mg/kg, 6 hours
[15] = first experiment, 20 mg/kg, 6 hours
[16] = first experiment, 40 mg/kg, 6 hours

Compound: CCC(NC)=C1C(=O)c2ccccc2C1=O [COR4003, (Méthylamino-1 propylidényl)-2 indanedione-1,3]
- inhibition de la réponse contractile [1]: inhibe cette réponse
- mortalité (souris [2]; intraperitoneal, 200 mg/kg): aucune mortalité
- mortalité (souris [2]; oral, 300 mg/kg): aucune mortalité
- IC80 [3]: 50 µg/mL (≈ 232 µM)
- effet chronotrope négatif intrinsèque ([4]; at the concentration inhibiting the histamine effect by 50 % (COR4003 100, COR4011 50 microg/ml)): ne présentant pas d'effet chronotrope négatif intrinsèque
- IC50 ([4]; chronotropic effect induced by 5 microg/ml histamine, read-out: concentration qui inhibe de 50 % cet effet chronotrope (converted)): 465 µM
- EC50 [5]: 10 µg/mL (≈ 46.5 µM)
- facteur multipliant l'excrétion sodique ([6]; 10 mg/kg): 2,4
- response vs control in vivo at 20 mg/kg ([6]; 20 mg/kg): 720%
- inhibition de l'oedème [7]: 41%
- change in vivo at 20 mg/kg ([8]; 6 h, read-out: augmentation de l'excrétion urinaire volumétrique mesurée au bout de 6 heures): 56%
- change in vivo at 20 mg/kg ([8]; read-out: augmentation de l'excrétion urinaire du sodium): 56%

Compound: CNC(C)=C1C(=O)c2ccccc2C1=O [COR3760, (Méthylamino-1 éthylidène)-2 indanedione-1,3]
- ptosis coté (souris [9]): 4
- LD50 [10]: 736 mg/kg
- mortalité (souris [2]; intraperitoneal, 200 mg/kg): aucune mortalité
- mortalité (souris [2]; oral, 300 mg/kg): aucune mortalité
- mortalité (souris [11]): 80%
- IC80 [3]: 50 µg/mL (≈ 248 µM)
- EC50 [5]: 50 µg/mL (≈ 248 µM)
- rapport Na/K ([6]; first experiment, 10 mg/kg (controls 0,56)): 0,4
- variation de l'excrétion urinaire volumétrique [6, 14]: +17%
- variation du potassium excrété [6, 14]: +165%
- variation du sodium excrété [6, 14]: +102%
- rapport Na/K ([6]; first experiment, 20 mg/kg (controls 0,56)): 0,49
- variation de l'excrétion urinaire volumétrique [6, 15]: +19%
- variation du potassium excrété [6, 15]: +180%
- variation du sodium excrété [6, 15]: +147%
- variation de l'excrétion urinaire volumétrique [6, 16]: +36%
- variation du potassium excrété [6, 16]: +239%
- variation du sodium excrété [6, 16]: +415%
- facteur multipliant l'excrétion sodique ([6]; 10 mg/kg): 2,3
- response vs control in vivo at 20 mg/kg ([6]; 20 mg/kg): 290%
- variation de l'excrétion urinaire volumétrique ([6]; second experiment, 40 mg/kg): +19%
- variation du potassium excrété ([6]; second experiment, 40 mg/kg): +70%
- variation du sodium excrété ([6]; second experiment, 40 mg/kg): +157%
- rapport Na/K ([6]; second experiment, 40 mg/kg (controls 0,59)): 0,88
- variation de l'excrétion urinaire volumétrique ([6]; second experiment, 60 mg/kg): +19%
- variation du potassium excrété ([6]; second experiment, 60 mg/kg): +90%
- variation du sodium excrété ([6]; second experiment, 60 mg/kg): +319%
- rapport Na/K ([6]; second experiment, 60 mg/kg (controls 0,59)): 1,15
- variation de l'excrétion urinaire volumétrique ([6]; second experiment, 80 mg/kg): +29%
- variation du potassium excrété ([6]; second experiment, 80 mg/kg): +77%
- variation du sodium excrété ([6]; second experiment, 80 mg/kg): +472%
- rapport Na/K ([6]; second experiment, 80 mg/kg (controls 0,59)): 1,88
- augmentation de l'excrétion urinaire volumétrique mesurée à la sixième heure ([12]; 10 mg/kg): 28%
- augmentation de l'excrétion urinaire volumétrique mesurée à la sixième heure ([12]; 20 mg/kg): 84%
- augmentation de l'excrétion urinaire volumétrique mesurée à la sixième heure ([12]; 40 mg/kg): 116%
- augmentation de l'excrétion urinaire volumétrique mesurée à la sixième heure ([13]; 10 mg/kg): 49%
- augmentation de l'excrétion urinaire volumétrique mesurée à la sixième heure ([13]; 20 mg/kg): 119%
- augmentation de l'excrétion urinaire volumétrique mesurée à la sixième heure ([13]; 40 mg/kg): 134%
